We go through 18 molecules from US8048825B2, “Haloalkylsulfonanilide derivatives or salt thereof, herbicide comprising the derivatives as active ingredient, and use of the herbicide” (Nihon Nohyaku Co., Ltd., priority 2006, dated 2011).

What all share (type): in vivo
Assay [1] has as its system Scirpus juncoides. The assay is described as follows: Herbicidal efficacy on paddy field weeds of pre-emergence stage (Pre), Test Example 1. To be noted: 1000 g/ha as active ingredient, examined after 21 days. The method, then:
(§1) 75 cm^2 plastic pots were filled with the soil (clay loam). Seeds of Scirpus juncoides, a paddy weed, were planted, and they were covered with 75 cm^3 of soil mixed with seeds of Lindernia procumbens and then filled with water depth of 5 cm. Next day, predetermined effective dosage (1000 g/ha as an active ingredient) of formulations comprising a compound of the present invention as an active ingredient which were prepared following Formulation Examples 1 to 4 was diluted with water and applied dropwise to the surface of the water. Then, they were brought up in a greenhouse and the herbicidal effect was examined after 21 days from the treatment by comparing with the result of an untreated group according to the following criteria. In the table, “-” means that the test was not performed.
(§2) Criteria for herbicidal efficacy (growth inhibiting degree) and phytotoxicity. • 5 . . . 100% herbicidal effect, phytotoxicity. • 4 . . . 90%-99% herbicidal effect, phytotoxicity. • 3 . . . 70%-89% herbicidal effect, phytotoxicity. • 2 . . . 40%-69% herbicidal effect, phytotoxicity. • 1 . . . 1%-39% herbicidal effect, phytotoxicity. • 0 . . . 0% herbicidal effect, phytotoxicity.

The test system of assay [2] is Lindernia procumbens. The assay is described as above. To be noted: 1000 g/ha as active ingredient, examined after 21 days. The method, then: as §1, §2
For assay [3], the system named is Scirpus juncoides. The assay is described as follows: Herbicidal effect on paddy field weeds of post-emergence stage (Post), Test Example 2. To be noted: one-leaf stage, 1000 g/ha as active ingredient, examined after 21 days.
From the text: as §2
(§3) 75 cm^2 plastic pots were filled with the soil (clay loam). Seeds of Scirpus juncoides and Echinochloa crus-galli, paddy weeds, were planted, and they were covered with 75 cm^3 of soil mixed with seeds of Lindernia procumbens and then filled with water depth of 5 cm and they were brought up in a greenhouse. When the test plants were at one-leaf stage, predetermined effective dosage (1000 g/ha as an active ingredient) of formulations comprising a compound of the present invention as an active ingredient was applied to the pot water. Then, they were brought up in a greenhouse and the herbicidal efficacy was examined after 21 days from the treatment by comparing with the result of an untreated group according to the criteria of Test Example 1. In the table, “-” means that the test was not performed.

Assay [4] concerns Lindernia procumbens. Described as above. Particulars: one-leaf stage, 1000 g/ha as active ingredient, examined after 21 days.
From the text: as §2, §3

Take `O=C1OC(c2ccc(Cl)cc2)(C2CC2)CCN1Cc1ccccc1NS(=O)(=O)C(F)(F)F` (stereo not drawn) [Compound 1-195]: the “Scirpus juncoides pre (herbicidal effect)” value (shortened to “Scirpus juncoides pre”) in the assay with Scirpus juncoides [1] is 4 (90%-99% herbicidal effect, phytotoxicity). For the same molecule, the “Lindernia procumbens pre (herbicidal effect)” value (“Lindernia procumbens pre” below) in the assay on Lindernia procumbens [2] is recorded as 4 (90%-99% herbicidal effect, phytotoxicity). In addition, in the assay on Scirpus juncoides [3], the “Scirpus juncoides post (herbicidal effect)” value (“Scirpus juncoides post” for short) is reported as 4 (90%-99% herbicidal effect, phytotoxicity). For the same molecule, the “Lindernia procumbens post (herbicidal effect)” value (“Lindernia procumbens post” below) with Lindernia procumbens [4] is given as 4 (90%-99% herbicidal effect, phytotoxicity).

`CCOC(=O)N(c1ccccc1CN1CCC(c2ccc(Cl)cc2)(C2CC2)OC1=O)S(=O)(=O)C(F)(F)F` (stereo not drawn) [Compound 1-197]: the “Scirpus juncoides pre” value in the assay on Scirpus juncoides [1] was 4 (90%-99% herbicidal effect, phytotoxicity). For the same molecule, in the assay on Lindernia procumbens [2], the “Lindernia procumbens pre” value was 4 (90%-99% herbicidal effect, phytotoxicity). For the same molecule, the “Scirpus juncoides post” value in the assay on Scirpus juncoides [3] is 4 (90%-99% herbicidal effect, phytotoxicity). The “Lindernia procumbens post” value with Lindernia procumbens [4] was 4 (90%-99% herbicidal effect, phytotoxicity).

Turning to `O=C1OC(c2ccccc2)(C2CCC2)CCN1Cc1ccccc1NS(=O)(=O)C(F)(F)F` (stereo not drawn) [Compound 1-206], the “Scirpus juncoides pre” value with Scirpus juncoides [1] is given as 4 (90%-99% herbicidal effect, phytotoxicity). For the same molecule, the “Lindernia procumbens pre” value in the assay on Lindernia procumbens [2] was 4 (90%-99% herbicidal effect, phytotoxicity). Moreover, the “Scirpus juncoides post” value in the assay with Scirpus juncoides [3] is given as 4 (90%-99% herbicidal effect, phytotoxicity). Further, the “Lindernia procumbens post” value in the assay on Lindernia procumbens [4] is recorded as 4 (90%-99% herbicidal effect, phytotoxicity).

Regarding `O=C1OC(c2ccccc2)(c2ccccc2)CCN1Cc1ccccc1NS(=O)(=O)C(F)(F)F` [Compound 1-217], the “Scirpus juncoides pre” value with Scirpus juncoides [1] was 4 (90%-99% herbicidal effect, phytotoxicity). In the assay with Lindernia procumbens [2], the “Lindernia procumbens pre” value is 4 (90%-99% herbicidal effect, phytotoxicity). For the same molecule, the “Scirpus juncoides post” value in the assay on Scirpus juncoides [3] is listed as 4 (90%-99% herbicidal effect, phytotoxicity). Moreover, the “Lindernia procumbens post” value in the assay on Lindernia procumbens [4] was 4 (90%-99% herbicidal effect, phytotoxicity).

`CCOC(=O)N(c1ccccc1CN1CCC(c2ccccc2)(c2ccccc2)OC1=O)S(=O)(=O)C(F)(F)F` [Compound 1-219]: the “Scirpus juncoides pre” value in the assay on Scirpus juncoides [1] is on record as 4 (90%-99% herbicidal effect, phytotoxicity). Further, the “Lindernia procumbens pre” value with Lindernia procumbens [2] is recorded as 4 (90%-99% herbicidal effect, phytotoxicity). Besides, the “Scirpus juncoides post” value in the assay with Scirpus juncoides [3] is recorded as 4 (90%-99% herbicidal effect, phytotoxicity). In addition, in the assay on Lindernia procumbens [4], the “Lindernia procumbens post” value was 4 (90%-99% herbicidal effect, phytotoxicity).

As for `O=C1OC(c2ccccc2)(C(F)(F)F)CCN1Cc1ccccc1NS(=O)(=O)C(F)(F)F` (stereo not drawn) [Compound 1-228], in the assay on Scirpus juncoides [1], the “Scirpus juncoides pre” value is 5 (100% herbicidal effect, phytotoxicity). The “Lindernia procumbens pre” value in the assay on Lindernia procumbens [2] is recorded as 5 (100% herbicidal effect, phytotoxicity). Moreover, the “Scirpus juncoides post” value in the assay on Scirpus juncoides [3] is recorded as 4 (90%-99% herbicidal effect, phytotoxicity). Also, the “Lindernia procumbens post” value in the assay with Lindernia procumbens [4] is on record as 5 (100% herbicidal effect, phytotoxicity).

Regarding `O=C1OC(c2ccccc2F)CCN1Cc1ccccc1NS(=O)(=O)C(F)(F)F` (stereo not drawn) [Compound 1-250], the “Scirpus juncoides pre” value in the assay with Scirpus juncoides [1] is 5 (100% herbicidal effect, phytotoxicity). Further, in the assay on Lindernia procumbens [2], the “Lindernia procumbens pre” value is listed as 5 (100% herbicidal effect, phytotoxicity). Besides, the “Scirpus juncoides post” value in the assay with Scirpus juncoides [3] is on record as 5 (100% herbicidal effect, phytotoxicity). Besides, the “Lindernia procumbens post” value in the assay with Lindernia procumbens [4] is reported as 5 (100% herbicidal effect, phytotoxicity).

Take `CCOC(=O)N(c1ccccc1CN1CCC(c2ccccc2F)OC1=O)S(=O)(=O)C(F)(F)F` (stereo not drawn) [Compound 1-252]: in the assay on Scirpus juncoides [1], the “Scirpus juncoides pre” value is 4 (90%-99% herbicidal effect, phytotoxicity). In addition, the “Lindernia procumbens pre” value in the assay with Lindernia procumbens [2] is listed as 5 (100% herbicidal effect, phytotoxicity). Further, the “Scirpus juncoides post” value in the assay with Scirpus juncoides [3] is 4 (90%-99% herbicidal effect, phytotoxicity). The “Lindernia procumbens post” value in the assay with Lindernia procumbens [4] is recorded as 5 (100% herbicidal effect, phytotoxicity).

As for `CN(c1ccccc1CN1CC(C)(C)C(c2ccccc2)OC1=O)S(=O)(=O)C(F)(F)F` (stereo not drawn) [Compound 1-268], the “Scirpus juncoides pre” value in the assay with Scirpus juncoides [1] was 4 (90%-99% herbicidal effect, phytotoxicity). Besides, the “Lindernia procumbens pre” value in the assay on Lindernia procumbens [2] was 5 (100% herbicidal effect, phytotoxicity). In the assay on Scirpus juncoides [3], the “Scirpus juncoides post” value is recorded as 4 (90%-99% herbicidal effect, phytotoxicity). Also, in the assay with Lindernia procumbens [4], the “Lindernia procumbens post” value is recorded as 5 (100% herbicidal effect, phytotoxicity).

For `O=C1OC(c2ccccc2C(F)(F)F)CCN1Cc1ccccc1NS(=O)(=O)C(F)(F)F` (stereo not drawn) [Compound 1-294], the “Scirpus juncoides pre” value in the assay with Scirpus juncoides [1] is given as 4 (90%-99% herbicidal effect, phytotoxicity). Moreover, the “Lindernia procumbens pre” value in the assay with Lindernia procumbens [2] is reported as 5 (100% herbicidal effect, phytotoxicity). In addition, the “Scirpus juncoides post” value with Scirpus juncoides [3] is 4 (90%-99% herbicidal effect, phytotoxicity). Besides, the “Lindernia procumbens post” value with Lindernia procumbens [4] is on record as 5 (100% herbicidal effect, phytotoxicity).

In the case of `O=C1OC(c2ccccc2Cl)CCN1Cc1ccccc1NS(=O)(=O)C(F)(F)F` (stereo not drawn) [Compound 1-305], the “Scirpus juncoides pre” value in the assay on Scirpus juncoides [1] is recorded as 4 (90%-99% herbicidal effect, phytotoxicity). In addition, in the assay with Lindernia procumbens [2], the “Lindernia procumbens pre” value is reported as 5 (100% herbicidal effect, phytotoxicity). Moreover, the “Scirpus juncoides post” value in the assay on Scirpus juncoides [3] is 4 (90%-99% herbicidal effect, phytotoxicity). The “Lindernia procumbens post” value in the assay on Lindernia procumbens [4] is recorded as 5 (100% herbicidal effect, phytotoxicity).

For `CCOC(=O)N(c1ccccc1CN1CCC(c2ccccc2Cl)OC1=O)S(=O)(=O)C(F)(F)F` (stereo not drawn) [Compound 1-307], the “Scirpus juncoides pre” value with Scirpus juncoides [1] is 4 (90%-99% herbicidal effect, phytotoxicity). Also, the “Lindernia procumbens pre” value with Lindernia procumbens [2] is 5 (100% herbicidal effect, phytotoxicity). The “Scirpus juncoides post” value in the assay on Scirpus juncoides [3] is listed as 4 (90%-99% herbicidal effect, phytotoxicity). Further, the “Lindernia procumbens post” value with Lindernia procumbens [4] is on record as 5 (100% herbicidal effect, phytotoxicity).

Regarding `O=C1OC(C(F)(F)F)(C(F)(F)F)CCN1Cc1ccccc1NS(=O)(=O)C(F)(F)F` [Compound 1-338], the “Scirpus juncoides pre” value in the assay on Scirpus juncoides [1] is recorded as 4 (90%-99% herbicidal effect, phytotoxicity). The “Lindernia procumbens pre” value with Lindernia procumbens [2] was 4 (90%-99% herbicidal effect, phytotoxicity). Further, the “Scirpus juncoides post” value with Scirpus juncoides [3] was 4 (90%-99% herbicidal effect, phytotoxicity). In addition, the “Lindernia procumbens post” value in the assay with Lindernia procumbens [4] is given as 5 (100% herbicidal effect, phytotoxicity).

For the molecule `COC(=O)N(c1ccccc1CN1CCC(c2c(F)cccc2F)OC1=O)S(=O)(=O)C(F)(F)F` (stereo not drawn) [Compound 1-350], the “Scirpus juncoides pre” value in the assay on Scirpus juncoides [1] is listed as 5 (100% herbicidal effect, phytotoxicity). In addition, the “Lindernia procumbens pre” value with Lindernia procumbens [2] is on record as 5 (100% herbicidal effect, phytotoxicity). Also, in the assay with Scirpus juncoides [3], the “Scirpus juncoides post” value is 4 (90%-99% herbicidal effect, phytotoxicity). In addition, in the assay on Lindernia procumbens [4], the “Lindernia procumbens post” value is given as 5 (100% herbicidal effect, phytotoxicity).

As to `CCOC(=O)N(c1ccccc1CN1CCC(c2c(F)cccc2F)OC1=O)S(=O)(=O)C(F)(F)F` (stereo not drawn) [Compound 1-351], in the assay on Scirpus juncoides [1], the “Scirpus juncoides pre” value is listed as 4 (90%-99% herbicidal effect, phytotoxicity). Further, in the assay on Lindernia procumbens [2], the “Lindernia procumbens pre” value is reported as 5 (100% herbicidal effect, phytotoxicity). In addition, in the assay with Scirpus juncoides [3], the “Scirpus juncoides post” value is on record as 4 (90%-99% herbicidal effect, phytotoxicity). Besides, in the assay on Lindernia procumbens [4], the “Lindernia procumbens post” value is 5 (100% herbicidal effect, phytotoxicity).

Take `Cc1cccc(C)c1C1CCN(Cc2ccccc2NS(=O)(=O)C(F)(F)F)C(=O)O1` (stereo not drawn) [Compound 1-360]: the “Scirpus juncoides pre” value with Scirpus juncoides [1] is recorded as 5 (100% herbicidal effect, phytotoxicity). The “Lindernia procumbens pre” value in the assay with Lindernia procumbens [2] is 5 (100% herbicidal effect, phytotoxicity). Moreover, the “Scirpus juncoides post” value in the assay with Scirpus juncoides [3] is on record as 4 (90%-99% herbicidal effect, phytotoxicity). In the assay on Lindernia procumbens [4], the “Lindernia procumbens post” value is on record as 5 (100% herbicidal effect, phytotoxicity).

`CC(C)(C)COC(=O)N(c1ccccc1CN1CCC(C)(C2(C)CC2)OC1=O)S(=O)(=O)C(F)(F)F` (stereo not drawn) [Compound 1-377]: in the assay on Scirpus juncoides [1], the “Scirpus juncoides pre” value is 4 (90%-99% herbicidal effect, phytotoxicity). In addition, the “Lindernia procumbens pre” value in the assay with Lindernia procumbens [2] is 5 (100% herbicidal effect, phytotoxicity). Moreover, the “Scirpus juncoides post” value in the assay on Scirpus juncoides [3] is 4 (90%-99% herbicidal effect, phytotoxicity). In the assay on Lindernia procumbens [4], the “Lindernia procumbens post” value was 5 (100% herbicidal effect, phytotoxicity).

As to `CC1(c2ccccc2C(F)(F)F)CCN(Cc2ccccc2NS(=O)(=O)C(F)(F)F)C(=O)O1` (stereo not drawn) [Compound 1-393], the “Scirpus juncoides pre” value in the assay on Scirpus juncoides [1] is 5 (100% herbicidal effect, phytotoxicity). Besides, the “Lindernia procumbens pre” value with Lindernia procumbens [2] was 5 (100% herbicidal effect, phytotoxicity). Moreover, in the assay on Scirpus juncoides [3], the “Scirpus juncoides post” value is 4 (90%-99% herbicidal effect, phytotoxicity). Also, the “Lindernia procumbens post” value in the assay with Lindernia procumbens [4] is 5 (100% herbicidal effect, phytotoxicity).
